≈ marks a conversion by molar mass, not a printed value.
Columns and labels:
[1] = test system: Methicillin-resistant S. aureus (MRSA 33591); assay: Minimal inhibitory concentration (MIC), broth microdilution, MRSA; assay type: cell-based; settings: Staphylococcus aureus, read-out: MIC (minimum inhibitory concentration)
Experimental: (§1) Minimal inhibitory concentration (MICs) assays were performed using the broth microdilution method set forth in NCCLS guidelines (see, NCCLS. 2000. Methods for Dilution Antimicrobial Susceptibility Tests for Bacteria That Grow Aerobically; Approved Standard—Fifth Ed., Vol. 20, No. 2). Bacterial strains were obtained from the American Type Tissue Culture Collection (ATCC), Stanford University Hospital (SU), Kaiser Permanente Regional Laboratory in Berkeley (KPB), Massachusetts General Hospital (MGH), the Centers for Disease Control (CDC), the San Francisco Veterans' Administration Hospital (SFVA) or the University of California San Francisco Hospital (UCSF). Vancomycinresistant enterococci were phenotyped as Van A or Van B based on their sensitivity to teicoplanin. Some vancomycin-resistant enterococci that had been genotyped as Van A, Van B, Van C1 or Van C2 were also obtained from the Mayo Clinic.
(§2) In this assay, cryopreserved bacterial cultures of reference and clinical strains were streaked for isolation on appropriate agar medium (i.e., Trypticase Soy Agar, Trypticase Soy Agar with defibrinated sheep erthrocytes, Brain Heart Infusion Agar, Chocolate Agar). Following incubation to allow formation of colonies, these plates were sealed with parafilm and stored refrigerated for up to two weeks. […] The MIC was read visually as the lowest concentration well with no bacterial growth. […]

[2] = test system: Methicillin-sensitive S. aureus (MSSA 13709); assay: Minimal inhibitory concentration (MIC), broth microdilution, MSSA; assay type: cell-based; settings: Staphylococcus aureus, read-out: MIC (minimum inhibitory concentration)
Experimental: as §1, §2

MSSA 13709 = assay: Time-kill assay, MSSA; assay type: cell-based, Staphylococcus aureus; settings: bactericidal in 24 hours
Experimental: (§3) Time-Kill Assay This time-kill assay is a method for measuring the rate of bactericidal activity of a test compound.
(§4) Bacteria were diluted in prewarmed media in shake flasks and incubated with shaking (200 rpm, 35° C.). At 0, 1, 4, and 24 hours samples were withdrawn from the flasks and bacteria were enumerated by plate counting. Subsequent to the initial sampling, a compound to be assayed was added to the shake flask culture. Plate counts at these intervals previous to and following addition of the compound were expressed graphically in a time-kill curve.

MRSA 33591 [3] = assay: Time-kill assay, MRSA; assay type: cell-based, Staphylococcus aureus; settings: bactericidal in 24 hours
Experimental: as §3, §4

MRSA 33591 [4] = assay: In vivo efficacy in neutropenic mice (thigh infection); settings: Staphylococcus aureus; neutropenic male CD-1 mice, MRSA 33591 thigh infection, iv, 24 hours post-treatment; read-out: ED50 (dose required to produce 50% of the maximum reduction in thigh titre)
Experimental: In vivo Efficacy Studies in Neutropenic Mice Animals (male CD-1 mice, 20-30 g) were acquired from Charles Rivers Laboratories (Gilroy, Calif.) and allowed access to food and water ad libitum. Neutropenia was induced via 200 mg/kg intraperitoneal (IP) injection of cyclophosphamide given four and two days prior to the inoculation of bacteria.
The organism used was either a susceptible or resistant strain of clinically relevant gram positive pathogens, such as methicillin-susceptible Staphylococcus aureus (MSSA 13709) and methicillin-resistant Staphylococcus aureus (MRSA 33591). The bacterial inoculum concentration was ˜10^6 CFU/mL. Animals were lightly anesthetized with isoflurane and […] of the bacterial inoculum was injected into the anterior thigh. One hour after the inoculation, animals were dosed intravenously with vehicle or the appropriate dose of the test compound. At 0 hours and 24 hours post-treatment, the animals were euthanized (CO2 asphyxiation) and the anterior and posterior thigh collected aseptically. The thigh was placed into 10 mL sterile saline and homogenized. Dilutions of the homogenate were plated onto triptic soy agar plates which were incubated overnight. The number of bacterial colonies on a given plate was multiplied by the dilution factor, divided by the thigh weight (in grams) and expressed as log CFU/g. […]

CN[C@H](CC(C)C)C(=O)N[C@H]1C(=O)N[C@@H](CC(N)=O)C(=O)N[C@H]2C(=O)N[C@H]3C(=O)N[C@H](C(=O)N[C@H](C(=O)O)c4cc(O)cc(O)c4-c4cc3ccc4O)[C@H](O)c3ccc(c(Cl)c3)Oc3cc2cc(c3O[C@@H]2O[C@H](CO)[C@@H](O)[C@H](O)[C@H]2O[C@H]2C[C@](C)(N)[C@H](O)[C@H](C)O2)Oc2ccc(cc2Cl)[C@H]1O [Vancomycin, vancomycin]
MIC [1]: 2 µg/mL (≈ 1.38 µM) | MIC [2]: 1 µg/mL (≈ 0.69 µM) | concentration at which bactericidal (≧3 log decrease in bacterial cell numbers) (MSSA 13709): 4 μg/mL | concentration at which bactericidal (≧3 log decrease in bacterial cell numbers) (MRSA 33591 [3]): 4 μg/mL | ED50 (MRSA 33591 [4]): 9 mg/kg

Source: US6995138B2, “Cross-linked glycopeptide-cephalosporin antibiotics” (priority 2002, dated 2006)
